Data taken from US9156852B2, “Thieno[3,2-D]pyrimidine derivatives having inhibitory activity for protein kinases” (HANMI PHARM. CO., LTD, priority 2011, dated 2015).

How the values were obtained:
FMS = FMS (Homo sapiens (Human), UniProt P07333); assay: FMS kinase activity, Kinase Screening and Profiling Service (Invitrogen); format: biochemical
Experimental: (§1) As such, the compounds prepared in Examples were tested for inhibitory activity against FMS, DDR1 and DDR2 kinases using Kinase Screening and Profiling Service (Invitrogen, U.S.).

DDR2 = DDR2 (Homo sapiens (Human), UniProt Q16832); assay: DDR2 kinase activity, Kinase Screening and Profiling Service (Invitrogen); format: biochemical
Chain of DDR2 (Q16832 22-855): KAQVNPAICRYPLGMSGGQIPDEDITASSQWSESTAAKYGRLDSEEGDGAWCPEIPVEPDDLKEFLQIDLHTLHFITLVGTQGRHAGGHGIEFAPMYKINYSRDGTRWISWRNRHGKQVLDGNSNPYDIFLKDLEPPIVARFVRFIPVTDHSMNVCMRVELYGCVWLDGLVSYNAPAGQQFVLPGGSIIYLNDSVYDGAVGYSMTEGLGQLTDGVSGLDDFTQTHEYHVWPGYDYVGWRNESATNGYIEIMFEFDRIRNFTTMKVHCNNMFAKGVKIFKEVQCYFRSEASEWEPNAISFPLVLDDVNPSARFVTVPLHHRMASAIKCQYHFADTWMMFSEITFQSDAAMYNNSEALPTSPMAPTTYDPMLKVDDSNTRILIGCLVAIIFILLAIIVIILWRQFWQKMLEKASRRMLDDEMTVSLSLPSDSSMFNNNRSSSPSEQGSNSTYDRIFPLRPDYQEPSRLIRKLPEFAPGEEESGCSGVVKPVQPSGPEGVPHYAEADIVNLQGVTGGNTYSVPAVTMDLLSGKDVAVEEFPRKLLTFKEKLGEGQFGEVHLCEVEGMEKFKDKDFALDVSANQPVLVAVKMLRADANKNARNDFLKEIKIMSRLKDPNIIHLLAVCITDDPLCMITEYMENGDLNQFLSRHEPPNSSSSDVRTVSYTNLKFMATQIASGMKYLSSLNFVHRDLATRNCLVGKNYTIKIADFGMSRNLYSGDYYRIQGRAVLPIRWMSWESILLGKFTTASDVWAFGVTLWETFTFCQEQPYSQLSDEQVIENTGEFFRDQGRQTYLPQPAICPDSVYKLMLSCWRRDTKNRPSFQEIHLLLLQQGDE
Experimental: as §1

DDR1 = DDR1 (Homo sapiens (Human), UniProt Q08345); assay: DDR1 kinase activity, Kinase Screening and Profiling Service (Invitrogen); format: biochemical
Chain of DDR1 (Q08345 19-913): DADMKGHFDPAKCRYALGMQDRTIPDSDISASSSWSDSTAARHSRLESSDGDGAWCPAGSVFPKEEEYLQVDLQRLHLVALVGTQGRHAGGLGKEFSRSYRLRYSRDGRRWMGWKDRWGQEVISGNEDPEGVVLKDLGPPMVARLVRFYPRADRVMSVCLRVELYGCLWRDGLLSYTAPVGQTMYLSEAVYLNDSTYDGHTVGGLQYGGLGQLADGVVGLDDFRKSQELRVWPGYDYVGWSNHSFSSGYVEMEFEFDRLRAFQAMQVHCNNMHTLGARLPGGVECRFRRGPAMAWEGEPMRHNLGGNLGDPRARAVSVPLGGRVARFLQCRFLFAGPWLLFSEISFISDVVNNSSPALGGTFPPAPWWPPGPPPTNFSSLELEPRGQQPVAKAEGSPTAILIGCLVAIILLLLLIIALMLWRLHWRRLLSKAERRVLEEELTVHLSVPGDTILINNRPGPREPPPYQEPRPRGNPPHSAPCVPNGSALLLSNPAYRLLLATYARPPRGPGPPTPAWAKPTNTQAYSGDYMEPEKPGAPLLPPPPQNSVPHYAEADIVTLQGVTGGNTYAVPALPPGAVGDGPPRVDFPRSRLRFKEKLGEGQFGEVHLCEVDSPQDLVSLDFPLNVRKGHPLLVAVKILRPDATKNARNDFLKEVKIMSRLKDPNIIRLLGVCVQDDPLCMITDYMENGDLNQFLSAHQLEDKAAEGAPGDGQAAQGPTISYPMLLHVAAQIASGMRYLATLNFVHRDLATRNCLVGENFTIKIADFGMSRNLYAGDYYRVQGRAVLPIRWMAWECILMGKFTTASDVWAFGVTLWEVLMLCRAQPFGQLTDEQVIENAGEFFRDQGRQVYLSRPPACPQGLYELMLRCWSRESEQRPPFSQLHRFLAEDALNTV
Experimental: as §1

[1] = test system: SK-Mel-2 cells (N-RAS mutant melanoma); assay: Inhibition on cell growth of N-RAS mutant cell SK-Mel-2 (SRB); format: cell-based; settings: Homo sapiens, 72 hours, SRB staining, described as GI50 in the method
Experimental: (§2) N-RAS mutant cells, SK-Mel-2 cell lines (ATCC #HTB-68™), were obtained from ATCC (American Type Culture Collection: Rockville, Md.). SK-Mel-2 cell lines were incubated in a MEM medium supplemented with 10% FBS and 1% penicillin/streptomycin (Gibco BRL) under 37° C., 5% CO2 and 95% air. The cell lines were transferred into 96-well plates at a density of 5,000 cells/well, and cultured for 18 hours or more. The cells were treated with […]˜0.1 nM of test compounds, and cultured for 72 hours.
(§3) To evaluate cell viabilities, SK-Mel-2 cell lines were fixed with 10% TCA (trichloroacetic acid), stained with SRB (sulfohodamine B), and an absorbance was measured at 540 nm. Then, GI50, i.e., the concentration of drug to cause 50% reduction in proliferation of cancer cells, were calculated therefrom. The growth rates of cancer cells were calculated by Equation 1 or 2. [(Ti−Tz)/(C−Tz)]×100 (for Ti>=Tz) [Equation 1] [(Ti−Tz/Tz)×100 (for Ti<Tz) [Equation 2]
(§4) In Equations 1 and 2, ‘Tz’ refers to a density of untreated cells, which is an absorbance in 0% cell growth groups. ‘C’ refers to a density of cells cultured by adding only medium, and ‘Ti’ refers to a density of cells treated with test compounds.
GI50 value is the concentration of a test compound when the value of Equation 1 is 50, which indicates the concentration of test compound needed to reduce the growth of cancer cells to 50%. On each measurement, test compounds were compared with a control.

RAF1 Y340D Y341D (C-RAF) = RAF1 Y340D Y341D (C-RAF) (Homo sapiens (Human), UniProt P04049, Y340D/Y341D); assay: RAF kinase activity, Kinase Profiling Service (Invitrogen); format: biochemical
Chain of RAF1 Y340D Y341D (C-RAF) (P04049 whole entry Y340D/Y341D): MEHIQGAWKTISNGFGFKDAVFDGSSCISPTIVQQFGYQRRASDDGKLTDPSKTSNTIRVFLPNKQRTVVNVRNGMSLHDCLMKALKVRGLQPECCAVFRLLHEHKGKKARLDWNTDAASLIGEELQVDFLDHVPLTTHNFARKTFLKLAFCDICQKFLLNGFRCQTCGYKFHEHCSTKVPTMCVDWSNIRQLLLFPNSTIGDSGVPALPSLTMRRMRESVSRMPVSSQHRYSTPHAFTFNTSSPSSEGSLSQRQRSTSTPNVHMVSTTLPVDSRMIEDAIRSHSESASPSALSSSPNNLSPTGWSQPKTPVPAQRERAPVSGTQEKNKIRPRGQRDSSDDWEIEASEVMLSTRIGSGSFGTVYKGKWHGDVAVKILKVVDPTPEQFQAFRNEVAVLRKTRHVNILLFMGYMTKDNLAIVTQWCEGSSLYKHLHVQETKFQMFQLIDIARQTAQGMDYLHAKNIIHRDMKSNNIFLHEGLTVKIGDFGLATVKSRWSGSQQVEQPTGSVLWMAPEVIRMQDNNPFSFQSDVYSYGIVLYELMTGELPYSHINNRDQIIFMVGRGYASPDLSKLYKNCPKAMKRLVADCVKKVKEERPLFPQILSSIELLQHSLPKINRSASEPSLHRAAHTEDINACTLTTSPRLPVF
Experimental: (§5) The levels of enzymatic inhibition of the compounds were calculated as percent inhibition at various concentrations. Based on percent inhibition, dose-response curves were plotted using GraphPad Prism software.

B-RAF normal type = B-RAF normal type (Homo sapiens (Human), UniProt P15056); assay: as above; format: biochemical
Chain of B-RAF normal type (P15056 whole entry): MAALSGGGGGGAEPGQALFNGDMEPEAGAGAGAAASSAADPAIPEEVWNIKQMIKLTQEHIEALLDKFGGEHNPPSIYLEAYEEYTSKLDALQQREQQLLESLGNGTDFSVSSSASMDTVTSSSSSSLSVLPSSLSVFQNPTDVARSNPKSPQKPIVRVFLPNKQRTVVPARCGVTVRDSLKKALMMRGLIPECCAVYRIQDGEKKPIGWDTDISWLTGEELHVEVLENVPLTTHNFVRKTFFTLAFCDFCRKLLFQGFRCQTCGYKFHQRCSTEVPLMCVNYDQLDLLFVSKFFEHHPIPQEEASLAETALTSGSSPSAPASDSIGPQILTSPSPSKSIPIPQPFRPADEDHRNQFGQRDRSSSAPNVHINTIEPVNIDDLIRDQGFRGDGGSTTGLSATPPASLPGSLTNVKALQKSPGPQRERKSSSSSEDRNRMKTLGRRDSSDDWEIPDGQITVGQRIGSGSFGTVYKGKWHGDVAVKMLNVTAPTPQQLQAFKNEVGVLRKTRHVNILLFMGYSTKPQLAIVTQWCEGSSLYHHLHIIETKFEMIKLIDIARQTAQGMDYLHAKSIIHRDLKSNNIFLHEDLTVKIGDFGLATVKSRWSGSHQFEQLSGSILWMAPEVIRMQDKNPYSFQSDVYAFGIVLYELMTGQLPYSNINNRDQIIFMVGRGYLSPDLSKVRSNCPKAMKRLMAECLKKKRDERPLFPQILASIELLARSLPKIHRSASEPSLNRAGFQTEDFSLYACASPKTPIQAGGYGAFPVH
Experimental: as §5

B-RAF^V600E = B-RAF^V600E (Homo sapiens (Human), UniProt P15056, V600E); assay: as above; format: biochemical; settings: B-RAF V600E mutant; read-out: B-RAFv^600E (IC50)
Chain of B-RAF^V600E (P15056 whole entry V600E): as the sequence (P15056 whole entry) above, with V600E counted along it
Experimental: as §5

[2] = test system: HepG2 cells (N-RAS mutant hepatoma carcinoma cell); assay: Inhibition on cell growth of N-RAS mutant cell HepG2 (SRB); format: cell-based; settings: Homo sapiens, 72 hours, SRB staining, described as GI50 in the method
Experimental: as §2, with “mutant cells HepG2 cells (HCC)” for “mutant cells, SK-Mel-2”, “(ATCC # HB-8065™),” for “(ATCC #HTB-68™),”, “Md.). HepG2” for “Md.). SK-Mel-2”, “The cell lines” for “The cells”
as §3, with “HepG2” for “SK-Mel-2”
as §4
GI50 value is the concentration of test compound when the value of Equation 1 is 50, which indicates the concentration of test compound needed to reduce the growth of cancer cells to 50%. On each measurement, test compounds were compared with a control.

Chain of FMS (P07333 20-972): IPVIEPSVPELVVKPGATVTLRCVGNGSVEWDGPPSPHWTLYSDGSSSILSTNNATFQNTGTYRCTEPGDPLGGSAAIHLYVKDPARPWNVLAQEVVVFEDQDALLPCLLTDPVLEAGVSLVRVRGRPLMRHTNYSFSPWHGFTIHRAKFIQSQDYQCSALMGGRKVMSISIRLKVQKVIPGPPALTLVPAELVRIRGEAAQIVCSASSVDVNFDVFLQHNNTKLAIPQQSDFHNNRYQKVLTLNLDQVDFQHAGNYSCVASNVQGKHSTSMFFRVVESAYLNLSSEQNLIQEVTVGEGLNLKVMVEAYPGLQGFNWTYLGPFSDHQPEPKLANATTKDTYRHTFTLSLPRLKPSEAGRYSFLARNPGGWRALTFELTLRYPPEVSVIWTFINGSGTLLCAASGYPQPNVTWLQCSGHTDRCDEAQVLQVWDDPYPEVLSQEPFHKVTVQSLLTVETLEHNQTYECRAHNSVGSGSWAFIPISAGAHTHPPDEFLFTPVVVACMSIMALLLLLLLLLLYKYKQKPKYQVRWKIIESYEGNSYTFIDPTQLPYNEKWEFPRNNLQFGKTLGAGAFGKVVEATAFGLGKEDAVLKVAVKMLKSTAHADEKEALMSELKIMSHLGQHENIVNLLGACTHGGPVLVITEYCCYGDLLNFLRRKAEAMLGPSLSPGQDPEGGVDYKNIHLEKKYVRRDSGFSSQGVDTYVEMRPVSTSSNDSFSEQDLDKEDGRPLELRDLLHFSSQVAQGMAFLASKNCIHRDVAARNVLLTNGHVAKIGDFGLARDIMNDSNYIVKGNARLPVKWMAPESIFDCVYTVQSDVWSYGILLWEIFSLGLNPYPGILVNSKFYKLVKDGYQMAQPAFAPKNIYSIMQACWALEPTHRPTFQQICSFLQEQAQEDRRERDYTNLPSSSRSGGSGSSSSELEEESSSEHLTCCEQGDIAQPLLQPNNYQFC

Row | IC50 (FMS) [nM] | IC50 (DDR2) [nM] | IC50 (DDR1) [nM] | IC50 [1] [nM] | IC50 (RAF1 Y340D Y341D (C-RAF)) [nM] | IC50 (B-RAF normal type) [nM] | IC50 (B-RAF^V600E) [nM] | IC50 [2] [nM] | SMILES
1 | 1 | 5 | 2 | 56 | 23 | 121 | 22 | 27 | Cc1ccc2c(Nc3ccc(Cl)cc3)nccc2c1NC(=O)c1csc2c(N)ncnc12 [Example 1, 4-amino-N-(1-((4-chlorophenyl)amino)-6-methylisoquinolin-5-yl)thieno[3,2-d]pyrimidine-7-carboxamide]
2 | 4 | 10 | 5 | 60 | 7 | 12 | 5 | 30 | CC(=O)c1ccc(Nc2nccc3c(NC(=O)c4csc5c(N)ncnc45)c(C)ccc23)cc1 [Example 83, N-(1-((4-acetylphenyl)amino)-6-methylisoquinolin-5-yl)-4-aminothieno[3,2-d]pyrimidine-7-carboxamide]
3 | 50 | 181 | 71 | 210 | 15 | 179 | 31 | 90 | Cc1ccc2c(Nc3ccc(F)c(Cl)c3)nccc2c1NC(=O)c1csc2c(N)ncnc12 [Example 105, 4-amino-N-(1-((3-chloro-4-fluorophenyl)amino)-6-methylisoquinolin-5-yl)thieno[3,2-d]pyrimidine-7-carboxamide]
4 | – | – | – | 163 | 32 | 128 | 26 | 44 | Cc1ccc2c(Nc3ccc(OC(F)F)cc3)nccc2c1NC(=O)c1csc2c(N)ncnc12 [Example 50, 4-amino-N-(1-((4-(difluoromethoxy)phenyl)amino)-6-methylisoquinolin-5-yl)thieno[3,2-d]pyrimidine-7-carboxamide]
5 | – | – | – | 236 | 6 | 42 | 7 | 47 | Cc1ccc2c(Nc3ccc(Cl)c(CN(C)C)c3)nccc2c1NC(=O)c1csc2c(N)ncnc12 [Example 59, 4-amino-N-(1-((4-chloro-3-((dimethylamino)methyl)phenyl)amino)-6-methylisoquinolin-5-yl)thieno[3,2-d]pyrimidine-7-carboxamide]
6 | – | – | – | 52 | 5 | 15 | 32 | 24 | COc1ccc(Nc2nccc3c(NC(=O)c4csc5c(N)ncnc45)c(C)ccc23)cc1 [Example 16, 4-amino-N-(1-((4-methoxyphenyl)amino)-6-methylisoquinolin-5-yl)thieno[3,2-d]pyrimidine-7-carboxamide]
7 | 10 | 44 | 23 | 76 | 5 | 56 | 7 | 38 | Cc1ccc2c(Nc3cccc(Cl)c3F)nccc2c1NC(=O)c1csc2c(N)ncnc12 [Example 116, 4-amino-N-(1-((3-chloro-2-fluorophenyl)amino)-6-methylisoquinolin-5-yl)thieno[3,2-d]pyrimidine-7-carboxamide]
8 | – | – | – | 97 | – | – | – | 41 | Cc1ccc2c(Nc3cccc(Cl)c3)nccc2c1NC(=O)c1csc2c(N)ncnc12 [Example 38, 4-amino-N-(1-((3-chlorophenyl)amino)-6-methylisoquinolin-5-yl)thieno[3,2-d]pyrimidine-7-carboxamide]
9 | > 1000 | > 1000 | > 1000 | > 1000 | – | – | – | > 1000 | CCCS(=O)(=O)Nc1ccc(F)c(C(=O)c2c[nH]c3ncc(-c4ccc(Cl)cc4)cc23)c1F [Control, Vemurafenib, reference compound]
